What was measured:
[1] = Determination of oral bioavailability by urinary recovery after oral administration; assay type: in vivo; conditions: Long Evans Rats, gavage, 50 mg/kg; percent of dose excreted in urine over 48 hour collection as the parent compound 1-(β-D-arabinofuranosyl)-5-prop-1-ynyluracil
Procedure: Tests in rats were carried out on compounds of the invention to determine their bioavailability by measuring the urinary recovery after oral administration, as a percentage of the dose administered. High levels of the parent compound, 1-(β-D-arabinofuranosyl)-5-prop-1-ynyluracil, in the urine indicated good absorption from the gut.
Long Evans Rats were administered the compound of Example 1 or the parent compound by gavage at a dose of 50 mg/kg. The urine was collected for 24 and 48 hours post-dose, ultrafiltered, and analysed by reverse-phase high-pressure liquid chromatography. The oral bioavailability of the Example 1 compound and the parent compound was expressed as the percent of the dose excreted in the urine over the 48 hour period of collection, as 1-(β-D-arabinofuranosyl)-5-prop-1-ynyluracil, i.e. the parent compound.

[2] = test system: Vero cells; assay: Cell toxicity in a cell growth inhibition assay (MTT uptake); assay type: cell-based; conditions: concentration for 50% inhibition of cell viability at 96 hours
Procedure: Cell toxicity is assessed in a cell growth inhibition assay. Subconfluent cultures of Vero cells grown on 96-well microtiter dishes are exposed to different dilutions of drug, and cell viability determined daily on replicate cultures using uptake of a tetrazolium dye (MTT). The concentration required for a 50% inhibition of cell vaibility at 96 hours is termed CCID₅₀.

Molecule	Urinary Recovery (% of dose) [1]	CCID₅₀(µM) at 96 hr [2] [µM]
5-Prop-1-ynyl-1-(5-0-trimethylacetyl-β-D-arabinofuranosyl)uracil [Example 1]	64.89 % of dose	477
CC#Cc1cn([C@@H]2O[C@H](CO)[C@@H](O)[C@@H]2O)c(=O)[nH]c1=O [Parent Compound, 1-(β-D-arabinofuranosyl)-5-prop-1-ynyluracil, reference compound]	9.70 % of dose	

— patent EP0375164B1, “Antiviral compounds” (THE WELLCOME FOUNDATION LIMITED, priority 1988, dated 1990)
